We go through three compounds from PMC4297247 (Molecular cancer therapeutics, 2014).

The subject of experiment [1] is cell lines of the LAR subtype. Conditions: cited from earlier work.
In experiment [2] the test system is basal-like TNBCs. Conditions: cell lines and clinically; cited from earlier work.
Experiment [3] relates to mesenchymal-like cell lines, BT549, Hs578T, and MDA-MB231. The experiment can be described thus: Kinase inhibitor screen, CellTiter Glo cell viability, one week. The experiment is classed as cell-based, human. Conditions: did not reach statistical significance (p = 0.12).
Experiment [4] concerns mesenchymal-like TNBC cell lines. The following applies: cited from earlier work.

Turning to `CC(O)(CS(=O)(=O)c1ccc(F)cc1)C(=O)Nc1ccc(C#N)c(C(F)(F)F)c1` (stereo not shown) [bicalutamide], the “selective toxicity by TNBC subtype” value in experiment [1] is “selectively toxic to cell lines of the LAR subtype”.
`N.N.[Cl][Pt][Cl]` [cisplatin]: in experiment [2], the “toxicity by TNBC subtype” value is “more toxic to basal-like TNBCs”.
Take `Cc1nc(Nc2ncc(C(=O)Nc3c(C)cccc3Cl)s2)cc(N2CCN(CCO)CC2)n1` [dasatinib]: in experiment [3], the “sensitivity compared to cells of other TNBC subtypes” value is recorded as “more sensitive to dasatinib than cells of other TNBC subtypes”. Moreover, the “preferential toxicity by TNBC subtype” value in experiment [4] was “preferential toxicity for mesenchymal-like TNBC cell lines”.
